On to `CCc1nc2c(cnn2CC)c(NC2CCOCC2)c1CNC(=O)c1cccc(C(=O)NCc2ccc(F)c(-c3cccc(CN4C[C@@H]5C[C@H]4CN5)c3)c2)c1` [Example 207, N-({3′-[(1S,4S)-2,5-Diazabicyclo [2.2.1]hept-2-ylmethyl]-6-fluoro-3-biphenylyl}methyl)-N′-{[1,6-diethyl-4-(tetrahydro-2H-pyran-4-ylamino)-1H-pyrazolo[3,4-b]pyridin-5-yl]methyl}-1,3-benzenedicarboxamide], for which the melting point is 129 to 133 °C.

Take `CCc1nc2c(cnn2CC)c(NC2CCOCC2)c1CNC(=O)c1cc(C)cc(C(=O)NCc2ccc(C)c(Br)c2)c1`: the melting point is 117 to 119 °C. Compound `CCc1nc2c(cnn2CC)c(NC2CCOCC2)c1CNC(=O)c1cccc(C(=O)NCc2ccc(C)c(-c3cccc(CN4C[C@@H](C)N[C@@H](C)C4)c3)c2)c1` [Example 211, N-{[1,6-Diethyl-4-(tetrahydro-2H-pyran-4-ylamino)-1H-pyrazolo[3,4-b]pyridin-5-yl]methyl}-N′-[(3′-{[(3R,5S)-3,5-dimethyl-1-piperazinyl]methyl}-6-methyl-3-biphenylyl)methyl]-1,3-benzenedicarboxamide] registered a melting point of 109 to 112 °C.

`CCc1nc2c(cnn2CC)c(NC2CCOCC2)c1CNC(=O)c1cc(C)cc(C(=O)NCc2cccc(-c3cccc(CC4CCN(C)CC4)c3)c2)c1` [Example 425, N-{[1,6-Diethyl-4-(tetrahydro-2H-pyran-4-ylamino)-1H-pyrazolo[3,4-b]pyridin-5-yl]methyl}-5-methyl-N′-({3′-[(1-methyl-4-piperidinyl)methyl]-3-biphenylyl}methyl)-1,3-benzenedicarboxamide] had a melting point of 119 to 121 °C.

The compound `CCc1nc2c(cnn2CC)c(NC2CCOCC2)c1CNC(=O)c1cc(C)cc(C(=O)NCc2ccc(OC)c(-c3cccc(CN4CCN[C@@H](C)C4)c3)c2)c1` [Example 423, N-{[1,6-Diethyl-4-(tetrahydro-2H-pyran-4-ylamino)-1H-pyrazolo[3,4-b]pyridin-5-yl]methyl}-5-methyl-N′-[(6-(methyloxy)-3′-{[(3S)-3-methyl-1-piperazinyl]methyl}-3-biphenylyl)methyl]-1,3-benzenedicarboxamide] yielded a melting point of 121 to 123 °C.

`CCc1nc2c(cnn2CC)c(NC2CCOCC2)c1CNC(=O)c1cccc(C(=O)NCc2ccc(C)c(-c3cccc(CN4CCN(C)CC4)c3)c2)c1` [Example 193, N-{[1,6-Diethyl-4-(tetrahydro-2H-pyran-4-ylamino)-1H-pyrazolo[3,4-b]pyridin-5-yl]methyl}-N′-({6-methyl-3′-[(4-methyl-1-piperazinyl)methyl]-3-biphenylyl}methyl)-1,3-benzenedicarboxamide] gave a melting point of 121 to 124 °C. As for `CCc1nc2c(cnn2CC)c(NC2CCOCC2)c1CNC(=O)c1cc(C)cc(C(=O)NCc2ccc(Cl)c(Br)c2)c1`, the figure is 212 to 214 °C. As for `CCc1nc2c(cnn2CC)c(NC2CCOCC2)c1CNC(=O)c1cccc(C(=O)NCc2ccc(F)c(-c3cccc(CN4CCN(C(C)C)CC4)c3)c2)c1` [Example 203, N-{[1,6-Diethyl-4-(tetrahydro-2H-pyran-4-ylamino)-1H-pyrazolo[3,4-b]pyridin-5-yl]methyl}-N′-[(6-fluoro-3′-{[4-(1-methylethyl)-1-piperazinyl]methyl}-3-biphenylyl)methyl]-1,3-benzenedicarboxamide], the figure is 165 to 169 °C. As for `CCc1nc2c(cnn2CC)c(NC2CCOCC2)c1CNC(=O)c1cccc(C(=O)NCc2ccc(F)c(-c3cccc(CN4C[C@@H]5C[C@H]4CN5C(=O)OC(C)(C)C)c3)c2)c1`, the figure is 119 to 123 °C; as for `CCc1nc2c(cnn2CC)c(NC2CCOCC2)c1CNC(=O)c1cccc(C(=O)NCc2ccc(Cl)c(-c3cccc(CN4CCNCC4)c3)c2)c1` [Example 222, N-{[6-Chloro-3′-(1-piperazinylmethyl)-3-biphenylyl]methyl}-N′-{[1,6-diethyl-4-(tetrahydro-2H-pyran-4-ylamino)-1H-pyrazolo[3,4-b]pyridin-5-yl]methyl}-1,3-benzenedicarboxamide], 127 to 130 °C; as for `CCc1nc2c(cnn2CC)c(NC2CCOCC2)c1CNC(=O)c1cccc(C(=O)NCc2ccc(F)c(-c3cccc(CN4CCNC(=O)C4)c3)c2)c1` [Example 201, N-{[1,6-Diethyl-4-(tetrahydro-2H-pyran-4-ylamino)-1H-pyrazolo[3,4-b]pyridin-5-yl]methyl}-N′-({6-fluoro-3′-[(3-oxo-1-piperazinyl)methyl]-3-biphenylyl}methyl)-1,3-benzenedicarboxamide], 147 to 150 °C. `CCc1nc2c(cnn2CC)c(NC2CCOCC2)c1CNC(=O)c1cccc(C(=O)NCc2ccc(OC)c(-c3cccc(CN4CCN[C@@H](C)C4)c3)c2)c1` [Example 213, N-{[1,6-Diethyl-4-(tetrahydro-2H-pyran-4-ylamino)-1H-pyrazolo[3,4-b]pyridin-5-yl]methyl}-N′-[(6-(methyloxy)-3′-{[(3S)-3-methyl-1-piperazinyl]methyl}-3-biphenylyl)methyl]-1,3-benzenedicarboxamide] registered a melting point of 110 to 112 °C. Consider `CCc1nc2c(cnn2CC)c(NC2CCOCC2)c1CNC(=O)c1cccc(C(=O)NCc2ccc(F)c(-c3cccc(CN4CCN(C)CC4)c3)c2)c1` [Example 200, N-{[1,6-Diethyl-4-(tetrahydro-2H-pyran-4-ylamino)-1H-pyrazolo[3,4-b]pyridin-5-yl]methyl}-AN-({6-fluoro-3′-[(4-methyl-1-piperazinyl)methyl]-3-biphenylyl}methyl)-1,3-benzenedicarboxamide], for which the melting point is 169 to 173 °C. In the case of `CCc1nc2c(cnn2CC)c(NC2CCOCC2)c1CNC(=O)c1cccc(C(=O)NCc2ccc(Cl)c(-c3cccc(CN4C[C@@H]5C[C@H]4CN5)c3)c2)c1` [Example 223, N-({6-Chloro-3′-[(1S,4S)-2,5-diazabicyclo [2.2.1]hept-2-ylmethyl]-3-biphenylyl}methyl)-N′-{[1,6-diethyl-4-(tetrahydro-2H-pyran-4-ylamino)-1H-pyrazolo[3,4-b]pyridin-5-yl]methyl}-1,3-benzenedicarboxamide], the melting point was 145 to 149 °C.

In the case of `CCc1nc2c(cnn2CC)c(NC2CCOCC2)c1CNC(=O)c1cccc(C(=O)NCc2cc(Cl)cc(-c3cccc(CN4CCN(C)CC4)c3)c2)c1` [Example 422, N-({5-Chloro-3′-[(4-methyl-1-piperazinyl)methyl]-3-biphenylyl}methyl)-N′-{[1,6-diethyl-4-(tetrahydro-2H-pyran-4-ylamino)-1H-pyrazolo[3,4-b]pyridin-5-yl]methyl}-1,3-benzenedicarboxamide], the melting point is 116 to 118 °C. The result for `CCc1nc2c(cnn2CC)c(NC2CCOCC2)c1CNC(=O)c1cccc(C(=O)NCc2ccc(OC)c(-c3cccc(CN4CCCNCC4)c3)c2)c1` [Example 195, N-{[1,6-Diethyl-4-(tetrahydro-2H-pyran-4-ylamino)-1H-pyrazolo[3,4-b]pyridin-5-yl]methyl}-N′-{[3′-(hexahydro-1H-1,4-diazepin-1-ylmethyl)-6-(methyloxy)-3-biphenylyl]methyl}-1,3-benzenedicarboxamide] reads 143 to 147 °C; that for `CCc1nc2c(cnn2CC)c(NC2CCOCC2)c1CNC(=O)c1cccc(C(=O)NCc2ccc(F)c(-c3cccc(CN4CCCCC4)c3)c2)c1` [Example 199, N-{[1,6-Diethyl-4-(tetrahydro-2H-pyran-4-ylamino)-1H-pyrazolo[3,4-b]pyridin-5-yl]methyl}-N′-{[6-fluoro-3′-(1-piperidinylmethyl)-3-biphenylyl]methyl}-1,3-benzenedicarboxamide], 128 to 131 °C; that for `CCc1nc2c(cnn2CC)c(NC2CCOCC2)c1CNC(=O)c1cccc(C(=O)NCc2cc(Cl)cc(-c3cccc(CN4CCN[C@@H](C)C4)c3)c2)c1` [Example 224, N-[(5-Chloro-3′-{[(3S)-3-methyl-1-piperazinyl]methyl}-3-biphenylyl)methyl]-N′-{[1,6-diethyl-4-(tetrahydro-2H-pyran-4-ylamino)-1H-pyrazolo[3,4-b]pyridin-5-yl]methyl}-1,3-benzenedicarboxamide], 119 to 121 °C. The result for `CCc1nc2c(cnn2CC)c(NC2CCOCC2)c1CNC(=O)c1cccc(C(=O)NCc2ccc(OC)c(-c3cccc(CN4CCNCC4)c3)c2)c1` [Example 209, N-{[1,6-Diethyl-4-(tetrahydro-2H-pyran-4-ylamino)-1H-pyrazolo[3,4-b]pyridin-5-yl]methyl}-N′-{[6-(methyloxy)-3′-(1-piperazinylmethyl)-3-biphenylyl]methyl}-1,3-benzenedicarboxamide] reads 138 to 140 °C. In turn, `CCc1nc2c(cnn2CC)c(NC2CCOCC2)c1CNC(=O)c1cccc(C(=O)NCc2ccc(OC)c(-c3cccc(CN4CCCN(C)CC4)c3)c2)c1` [Example 217, N-{[1,6-Diethyl-4-(tetrahydro-2H-pyran-4-ylamino)-1H-pyrazolo[3,4-b]pyridin-5-yl]methyl}-N′-{[3′-[(4-methylhexahydro-1H-1,4-diazepin-1-yl)methyl]-6-(methyloxy)-3-biphenylyl]methyl}-1,3-benzenedicarboxamide] gave a melting point of 116 to 119 °C. As for `CCc1nc2c(cnn2CC)c(NC2CCOCC2)c1CNC(=O)c1cccc(C(=O)NCc2ccc(OC)c(-c3cccc(CN4C[C@@H](C)N[C@@H](C)C4)c3)c2)c1` [Example 210, N-{[1,6-Diethyl-4-(tetrahydro-2H-pyran-4-ylamino)-1H-pyrazolo[3,4-b]pyridin-5-yl]methyl}-N′-{[3′-{[(3R,5S)-3,5-dimethyl-1-piperazinyl]methyl}-6-(methyloxy)-3-biphenylyl]methyl}-1,3-benzenedicarboxamide], the figure is 127 to 129 °C; as for `O=C(O)c1cccc(C(=O)NCc2ccc(F)c(-c3cccc(CO)c3)c2)c1`, 169 to 171 °C. Consider `CCc1nc2c(cnn2CC)c(NC2CCOCC2)c1CNC(=O)c1cccc(C(=O)NCc2ccc(C)c(-c3cccc(CN4CCN[C@@H](C)C4)c3)c2)c1` [Example 212, N-{[1,6-Diethyl-4-(tetrahydro-2H-pyran-4-ylamino)-1H-pyrazolo[3,4-b]pyridin-5-yl]methyl}-N′-[(6-methyl-3′-{[(3S)-3-methyl-1-piperazinyl]methyl}-3-biphenylyl)methyl]-1,3-benzenedicarboxamide], for which the melting point fell in the range of 115 to 118 °C.

By melting point is commonly meant the temperature of the solid-liquid transition.
